Test results as given in patent publication US20190275033A1 (Boehringer Ingelheim International GmbH, priority 2016, published 2019).
Entries after “also recorded” stand apart in the source; their conditions may differ.

What was measured:
[1] = system: Bleomycin-induced lung fibrosis in mice; assay: Bleomycin-induced lung fibrosis in mice; format: in vivo
[2] = system: Silica-induced lung fibrosis in mice; assay: Silica-induced lung fibrosis in mice; format: in vivo
[3] = system: Bleomycin-induced lung fibrosis in rats; assay: Bleomycin-induced lung fibrosis in rats; format: in vivo
[4] = system: Skin and lung fibrosis in transgenic Fra-2 mice; assay: Skin and lung fibrosis in transgenic Fra-2 mice (genetic model of SSc-ILD); format: in vivo
Description: Data are shown in Huang et al., Ann. Rheum. Dis. […] Clin. Pract. Rheumatol. 2006; 1:134-44.

[5] = system: Rheumatoid arthritis and lung fibrosis in SKG mice; assay: Rheumatoid arthritis and lung fibrosis in zymosan-stimulated SKG mice (RA-ILD model)
Description: Whether this inflammation is helpful to resolve the fibrosis or detrimental remains open.
INTRODUCTION: Rheumatoid arthritis preferentially affects women and approximately […] of patients have lung abnormalities and involvement. From this group approximately 20% will develop rheumatoid arthritis-associated interstitial lung disease (RA-ILD).
RATIONALE: SKG mice, genetically prone to develop autoimmune arthritis, also develop a pulmonary interstitial pneumonia that resembles human cellular and fibrotic non-specific interstitial pneumonia.
Inflammation in the lungs was measured by BAL (bronchoalveolar lavage) cellularity and in enzymatically-digested lungs. Arthritis of joints and digits was scored weekly.

[6] = system: collagen-induced arthritis (CIA); assay: Mouse model of collagen-induced arthritis (CIA); format: in vivo; conditions: treatment started 13 days after induction, continued for 5 weeks
[7] = system: primary human lung fibroblasts from IPF patients; assay: Fibroblast to myofibroblast transformation of human lung fibroblasts; format: cell-based
Description: Nintedanib also attenuated the transformation of lung fibroblasts to myofibroblasts. Fibroblast proliferation, migration and transformation are fundamental processes in the common final path of several diseases resulting in lung fibrosis such as IPF but also SSc-ILD and RA-ILD.

[8] = system: animal models of lung fibrosis; assay: Three animal models of lung fibrosis; format: in vivo
[9] = system: dermal fibroblasts from patients with SSc; assay: Dermal fibroblasts from patients with SSc; format: cell-based, human
[10] = system: animal models of SSc and SSc-ILD; assay: Four animal models of SSc and SSc-ILD; format: in vivo
[11] = system: human lung fibroblast; assay: Human lung fibroblast contraction; format: cell-based; conditions: clinically relevant concentrations
[12] = system: patients with IPF; conditions: cited from earlier work
[13] = cited from earlier work
[14] = system: vascular endothelial growth factor receptors (VEGFRs); conditions: preclinical studies; cited from earlier work
[15] = system: platelet-derived growth factor receptors (PDGFRs); conditions: preclinical studies; cited from earlier work
[16] = system: fibroblast growth factor receptors (FGFRs); conditions: preclinical studies; cited from earlier work
[17] = preclinical studies; cited from earlier work
[18] = biological target: T1, PDGFR-α (Homo sapiens, UniProt P16234); conditions: normal human lung fibroblasts in vitro; cited from earlier work
T1 construct: endogenous in cells; host or cells: normal human lung fibroblasts
T1 sequence (P16234 24-1089): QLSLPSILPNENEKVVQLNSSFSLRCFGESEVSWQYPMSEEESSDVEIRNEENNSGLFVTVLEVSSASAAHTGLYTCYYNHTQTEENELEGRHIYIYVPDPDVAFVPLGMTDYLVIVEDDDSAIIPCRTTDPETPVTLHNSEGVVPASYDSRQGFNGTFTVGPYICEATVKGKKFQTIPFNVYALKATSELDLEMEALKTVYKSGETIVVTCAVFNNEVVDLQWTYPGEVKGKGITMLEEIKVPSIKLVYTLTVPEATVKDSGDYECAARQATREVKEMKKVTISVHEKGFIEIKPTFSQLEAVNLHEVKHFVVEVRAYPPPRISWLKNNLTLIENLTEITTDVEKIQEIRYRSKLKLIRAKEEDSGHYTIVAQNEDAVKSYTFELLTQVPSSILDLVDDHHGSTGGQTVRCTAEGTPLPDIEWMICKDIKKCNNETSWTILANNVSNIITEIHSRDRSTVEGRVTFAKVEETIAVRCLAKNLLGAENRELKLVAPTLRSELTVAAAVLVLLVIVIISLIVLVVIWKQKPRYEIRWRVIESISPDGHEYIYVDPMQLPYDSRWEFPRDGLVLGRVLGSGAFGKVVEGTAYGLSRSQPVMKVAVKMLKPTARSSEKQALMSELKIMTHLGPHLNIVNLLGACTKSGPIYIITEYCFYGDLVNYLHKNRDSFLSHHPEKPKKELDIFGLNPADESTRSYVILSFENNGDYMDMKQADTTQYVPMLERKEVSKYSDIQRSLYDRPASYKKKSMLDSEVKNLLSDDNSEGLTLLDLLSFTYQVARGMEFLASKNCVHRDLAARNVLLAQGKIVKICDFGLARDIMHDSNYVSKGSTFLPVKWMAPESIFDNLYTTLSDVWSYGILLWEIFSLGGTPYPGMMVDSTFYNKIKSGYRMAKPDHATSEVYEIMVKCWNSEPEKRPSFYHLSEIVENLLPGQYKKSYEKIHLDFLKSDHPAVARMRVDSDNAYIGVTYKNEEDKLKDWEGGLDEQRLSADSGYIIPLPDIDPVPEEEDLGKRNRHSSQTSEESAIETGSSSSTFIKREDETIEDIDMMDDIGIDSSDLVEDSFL

[19] = biological target: T2, PDGFR-β (Homo sapiens, UniProt P09619); conditions: normal human lung fibroblasts in vitro; cited from earlier work
T2 construct: endogenous in cells; host or cells: normal human lung fibroblasts
T2 sequence (P09619 33-1106): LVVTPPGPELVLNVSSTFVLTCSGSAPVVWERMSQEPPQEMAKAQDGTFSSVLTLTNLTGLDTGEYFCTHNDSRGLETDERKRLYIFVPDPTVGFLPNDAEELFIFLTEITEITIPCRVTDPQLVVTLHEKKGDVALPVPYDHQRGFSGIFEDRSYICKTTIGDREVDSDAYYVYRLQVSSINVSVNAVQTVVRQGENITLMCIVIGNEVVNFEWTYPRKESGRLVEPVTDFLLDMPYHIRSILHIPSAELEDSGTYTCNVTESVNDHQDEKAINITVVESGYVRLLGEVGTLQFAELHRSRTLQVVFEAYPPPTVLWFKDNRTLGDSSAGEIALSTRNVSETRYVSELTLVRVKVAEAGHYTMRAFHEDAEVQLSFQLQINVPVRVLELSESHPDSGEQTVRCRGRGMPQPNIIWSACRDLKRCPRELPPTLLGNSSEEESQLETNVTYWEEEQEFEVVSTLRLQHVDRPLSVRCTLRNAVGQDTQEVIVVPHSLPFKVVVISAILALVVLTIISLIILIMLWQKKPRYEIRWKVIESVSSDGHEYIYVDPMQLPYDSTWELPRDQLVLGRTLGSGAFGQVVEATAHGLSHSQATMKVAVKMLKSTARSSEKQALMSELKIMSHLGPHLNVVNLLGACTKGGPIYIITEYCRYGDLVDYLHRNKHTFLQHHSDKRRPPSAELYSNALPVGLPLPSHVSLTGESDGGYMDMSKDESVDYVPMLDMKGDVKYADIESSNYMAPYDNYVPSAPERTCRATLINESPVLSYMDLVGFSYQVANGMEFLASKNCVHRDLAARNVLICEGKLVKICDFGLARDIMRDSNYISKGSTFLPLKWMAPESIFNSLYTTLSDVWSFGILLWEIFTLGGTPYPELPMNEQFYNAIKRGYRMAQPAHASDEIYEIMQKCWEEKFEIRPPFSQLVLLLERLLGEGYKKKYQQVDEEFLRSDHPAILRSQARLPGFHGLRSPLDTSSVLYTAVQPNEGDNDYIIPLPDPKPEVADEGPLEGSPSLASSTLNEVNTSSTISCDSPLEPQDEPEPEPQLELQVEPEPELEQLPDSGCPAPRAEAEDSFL

[20] = system: human lung fibroblasts; conditions: cited from earlier work
[21] = system: lung fibroblasts from patients with IPF; conditions: cited from earlier work
[22] = system: primary human lung fibroblasts from IPF patients; conditions: cited from earlier work
[23] = system: mouse models of IPF; conditions: in vivo; cited from earlier work
[24] = system: bleomycin-induced skin fibrosis in mice; conditions: therapeutic nintedanib treatment; cited from earlier work
[25] = early treatment, developing lung disease
[26] = early treatment, from week 5 after zymosan
[27] = late treatment, week 16, vs saline
[28] = preventive or therapeutic dosing regimen
[29] = human lung fibroblasts from patients with IPF and control donors
[30] = lung fibroblasts from patients with IPF

Compound: COC(=O)c1ccc2c(c1)NC(=O)/C2=C(\Nc1ccc(N(C)C(=O)CN2CCN(C)CC2)cc1)c1ccccc1 [nintedanib, 3-Z-[1-(4-(N-((4-methyl-piperazin-1-yl)-methylcarbonyl)-N-methyl-amino)-anilino)-1-phenyl-methylene]-6-methoxycarbonyl-2-indolinone]
- BALF lymphocytes ([1]; preventive treatment): cytes↓
- IL-1β ([1]; preventive treatment): IL-1β↓
- Lung fibrosis ([1]; preventive treatment): fibrosis↓
- Lung inflammation ([1]; preventive treatment): mation↓
- TIMP-1 ([1]; preventive treatment): TIMP-1↓
- BALF lymphocytes ([1]; therapeutic treatment): cytes↓
- IL-1β ([1]; therapeutic treatment): IL-1β↓
- Lung collgen ([1]; therapeutic treatment): collgen↓
- Lung fibrosis ([1]; therapeutic treatment): fibrosis↓
- Lung inflammation ([1]; therapeutic treatment): mation↓
- TIMP-1 ([1]; therapeutic treatment): TIMP-1↓
- BALF neutrophils + lymphocytes ([2]; preventive treatment): cytes↓
- IL-1β ([2]; preventive treatment): IL-1β↓
- KC ([2]; preventive treatment): KC↓
- Lung collagen ([2]; preventive treatment): collagen↓
- Lung fibrosis ([2]; preventive treatment): fibrosis↓
- Lung inflammation ([2]; preventive treatment): mation↓
- TIMP-1 ([2]; preventive treatment): TIMP-1↓
- BALF neutrophils + lymphocytes ([2]; therapeutic treatment): cytes↓
- IL-1β ([2]; therapeutic treatment): IL-1β↓
- IL-6 ([2]; therapeutic treatment): IL-6↓
- KC ([2]; therapeutic treatment): KC↓
- Lung collagen ([2]; therapeutic treatment): collagen↓
- Lung fibrosis ([2]; therapeutic treatment): fibrosis↓
- Lung inflammation ([2]; therapeutic treatment): mation↓
- TIMP-1 ([2]; therapeutic treatment): TIMP-1↓
- Lung fibrosis (Ashcroft score) ([3]; preventive treatment): score)↓
- Lung fibrosis (Ashcroft score) ([3]; therapeutic treatment): score)↓
- Lung fibrosis ([4]; Fra2+/− mice): normalises
- lung vascular remodelling ([4]; Fra2+/− mice): normalises
- skin fibrosis ([4]; Fra2+/− mice): normalises
- Dermal thickness ([4]; therapeutic treatment): thickness↓
- ECM ([4]; therapeutic treatment): ECM↓
- Hydroxiproline ([4]; therapeutic treatment): Hydroxiproline↓
- MVEC apoptosis ([4]; therapeutic treatment): apoptosis↑
- Occluded vessels ([4]; therapeutic treatment): vessels↓
- Skin and lung myofibroblast count ([4]; therapeutic treatment): count↓
- VSMC ([4]; therapeutic treatment): VSMC↓
- Vessel wall thickness ([4]; therapeutic treatment): thickness↓
- inflammation in the lung ([5]; SKG mice treated with zymosan): slight but selective inflammation
- Arthritic score ([5]; early treatment): score↓
- Lung tissue B220 + B-cells ([5]; early treatment): B-cells↑
- Lung tissue CD103 + Dendritic cells ([5]; early treatment): cells↑
- Lung tissue Monocytes ([5]; early treatment): Monocytes↓
- Lung tissue Neutrophils ([5]; early treatment): Neutrophils↑
- static lung compliance ([5]; early treatment): ance↑
- lymphocytes in the BAL [5, 25]: trend towards increased
- neutrophils in the BAL [5, 25]: trend towards increased
- total number of alveolar macrophages ([5]; early treatment, developing lung disease, vs saline): no significant difference
- lung collagen deposition (hydroxyproline) [5, 26]: no effect; also recorded: not significantly altered
- static lung compliance (lung function) [5, 26]: improved lung function; also recorded: increase in static lung compliance
- arthritis score / joint swelling ([5]; early treatment, from week 5 after zymosan (week 5-11), 60 mg/kg daily gavage, vs saline, 60 mg/kg): attenuated arthritis pathology; also recorded: significant reduction in their development of arthritis; also recorded: significantly reduced; also recorded: reversal of joint swelling
- lung collagen (hydroxyproline) / pulmonary fibrosis ([5]; late (therapeutic) treatment for six weeks, established arthritis): reduction of collagen deposition; also recorded: significant reduction of lung collagen; also recorded: significantly reduces; also recorded: significant decrease
- BAL lymphocytes and neutrophils ([5]; late treatment): neutrophils↑
- Lung hydroxiproline ([5]; late treatment): hydroxiproline↓
- Lung tissue inflammatory macrophages ([5]; late treatment): macrophages↑
- static lung compliance ([5]; late treatment, established lung disease): no significant difference
- arthritis score / joint swelling ([5]; late treatment, from week 10 after zymosan (week 10-16), established disease, vs saline): reduction of the arthritis score if the score was normalized to the last measurement before the start of the nintedanib treatment; also recorded: not altered; also recorded: slightly increased the resolution of joint swelling
- alveolar macrophages (BAL) ([5]; late treatment, vs saline): no significant difference
- number of lymphocytes (BAL) ([5]; late treatment, vs saline): small but significant elevation
- number of neutrophils (BAL) ([5]; late treatment, vs saline): small but significant elevation
- total number of BAL cells ([5]; late treatment, vs saline): no significant difference
- percent survival [5, 27]: no significant change
- weight [5, 27]: no significant change
- Arthritic score ([5]; late treatment, if the data is normalised to the last scoring before the nintedanib treatment starts): score↓*
- B220+ B-cells ([5]; lungs, six weeks of nintedanib): small but significant increase
- CD4+ T-cells ([5]; lungs, six weeks of nintedanib): small but significant increase
- macrophage numbers ([5]; lungs, six weeks of nintedanib): no changes
- lung dendritic cells ([5]; nintedanib beginning at week 5): significant increase
- lung neutrophils ([5]; nintedanib beginning at week 5): significant increase
- increase in lung neutrophils ([5]; nintedanib beginning at week 11): not at week 11
- arthritis score [6]: no attenuating effect
- transformation of lung fibroblasts to myofibroblasts [7]: attenuated
- accumulation of lymphocytes in the bronchoalveolar lavage fluid (BALF) ([8]; in vivo): attenuated
- chemokine CXCL1/KC in lung tissue ([8]; in vivo): reduced
- collagen content in lung tissue ([8]; in vivo): reduced
- interleukin (IL)-10 in lung tissue ([8]; in vivo): reduced
- mRNA expression of procollagen 1 ([8]; in vivo): blocked
- mRNA expression of transforming growth factor (TGF)-β1 ([8]; in vivo): blocked
- tissue inhibitor of metalloproteinases (TIMP)-1 in lung tissue ([8]; in vivo): reduced
- histology score of fibrosis in lung sections [8, 28]: reduced
- histology score of granuloma formation in lung sections [8, 28]: reduced
- histology score of inflammation in lung sections [8, 28]: reduced
- expression of extracellular matrix markers [9]: reduced
- migration [9]: inhibited
- proliferation [9]: inhibited
- transformation to myofibroblast [9]: attenuated
- number of vascular smooth muscle cells ([10]; an animal model of SSc): reducing
- occluded pulmonary vessels ([10]; an animal model of SSc): reducing
- pulmonary vascular remodelling ([10]; an animal model of SSc): effectively attenuated
- Lung fibrosis ([10]; in vivo): effectively attenuated
- dermal microvascular endothelial cell apoptosis ([10]; in vivo): reduced
- dermal thickening ([10]; in vivo): reduced
- extracellular matrix deposition in skin and lung ([10]; in vivo): reduced
- myofibroblast accumulation in skin and lung ([10]; in vivo): attenuated
- skin fibrosis ([10]; in vivo): effectively attenuated
- human lung fibroblast contraction [11]: inhibits
- efficacy versus placebo ([12]; INPULSIS and TOMORROW trials, 150 mg twice daily): positive results
- reduction of the annual rate of decline in FVC (mL/year) ([12]; both INPULSIS trials, 150 mg twice daily versus placebo): approximately 50%
- elimination via biliary/faecal excretion ([13]; human, in vivo): > 90%
- exposure ([13]; patients with hepatic impairment (Child Pugh A, Child Pugh B)): increased
- inhibition of VEGFRs [14]: highly potent
- inhibition of PDGFRs [15]: highly potent
- inhibition of FGFRs [16]: highly potent
- oral bioavailability [17]: orally bioavailable
- PDGFR-α activation [18]: inhibit
- PDGFR-β activation [19]: inhibit
- proliferation of human lung fibroblasts from patients with IPF [20]: inhibited
- FGF-2-induced proliferation [20, 29]: inhibit
- VEGF-induced proliferation [20, 29]: inhibit
- proliferation of normal human lung fibroblasts ([20]; in vitro): inhibit
- migration of human lung fibroblasts from patients with IPF [21]: inhibited
- FGF-2-stimulated migration [21, 30]: attenuated
- PDGF-stimulated migration [21, 30]: attenuated
- TGF-β-induced fibroblast to myofibroblast transformation [22]: inhibited
- fibrosis in histological analyses [23]: reduced
- granuloma formation in histological analysis of lung tissue [23]: reduced
- inflammation in histological analysis of lung tissue [23]: reduced
- inflammatory cytokines [23]: reductions
- lymphocyte counts in the bronchoalveolar lavage fluid [23]: significant reductions
- neutrophil counts in the bronchoalveolar lavage fluid [23]: significant reductions
- total lung collagen [23]: significant reductions
- bleomycin-induced skin fibrosis [24]: attenuation
